In PubChem BioAssay AID1845215 (Molecular Pharmacology Branch, DTP, NCI, 2023):

Test system: SW 1271 complex tumor spheroid viability
Test: Anticancer human tumor SW 1271 cell line growth inhibition;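 note: spheroids exposed to agents for seven days before readout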;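 for viability, T/C: percent of DMSO vehicle control luminescence so 100% = vehicle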
Settings: for IC50: curve of first compound; for viability, T/C: stronger effect = lower value
Excerpt: Multicellular complex tumor spheroid response to DNA repair inhibitors in combination with DNA-damaging drugs
This study explores the anticancer activities of DNA-damaging drugs and inhibitors of DNA damage repair, both as single agents and in combinations. Complex tumor spheroids comprised of malignant cells, endothelial cells and mesenchymal stem cells served as an in vitro model for human solid tumors. This model system incorporates physiologically relevant features and patient-derived or established malignant cell lines with clinically relevant genetic alterations from many tumor types. Twenty-six patient-derived or established malignant cell lines were evaluated representing sarcoma, melanoma, small cell lung cancer (SCLC), non-small cell lung cancer (NSCLC), as well as bladder, ovarian and pancreatic cancers. The concentration ranges selected for each drug and investigational agent were based upon clinically achievable concentrations if the clinical Cmax of the agent was known.
Compounds. The drugs and compounds olaparib (NSC753686), talazoparib (NSC767125), berzosertib (NSC777718), elimusertib (NSC800525), nedisertib (NSC802822), VX-984 (NSC792969), AZD-1390 (NSC803789), temozolomide (NSC362856), topotecan (NSC609699), trabectedin (NSC813783), staurosporine (NSC755774), and gemcitabine (NSC613327) were obtained from the National Cancer Institute (NCI) Developmental Therapeutics Program Chemical Repository. The FDA-approved anticancer drug set is available from the Developmental Therapeutics Program at https://dtp.cancer.gov/organization/dscb/obtaining/available_plates.htm. […] The stock solutions were prepared in dimethyl sulfoxide (DMSO, Sigma-Aldrich, St. Louis, MO, cat. D2650) at 400-fold the tested concentration and stored at -70 degrees C. Prior to their use, the stock solutions were diluted in fresh medium and the final DMSO concentration in the assay was 0.25% (v/v). All drugs and investigational agents were tested over a range starting from a high concentration at or near the clinical Cmax and decreasing in half-log increments. If the clinical Cmax for an agent had not been determined, the highest concentration tested was 10 microM.
Cell Lines. The patient-derived cancer cell (PDC) lines: 156681-154-R-J1-PDC, 283228-195-R-J1-PDC, 287954-098-R-J1-PDC, 292921-168-R-J2-PDC, 349418-098-R-PDC, 425362-245-T-J1-PDC, 556581-035-R-J1-PDC, and BL0293-F563-PDC were received from the NCI Patient-Derived Models Repository (PDMR, https://pdmr.cancer.gov). The established cell lines HS-SY-2 (RRID:CVCL_8719), MPNST, and SYO-1 (RRID:CVCL_7146) were obtained from the Sloan Kettering Institute. The alveolar soft parts sarcoma cell line ASPS-1 (RRID:CVCL_S738) was established at the NCI and grown from internal seed stocks. The following established cell lines were purchased from the American Type Culture Collection (ATCC, Manassas, VA): G-401 (ATCC, cat. CRL-1441, RRID:CVCL_0270), SW982 (ATCC, cat. HTB-93, RRID:CVCL_1734), VA-ES-BJ (ATCC, cat. CRL-2138, RRID:CVCL_1785), NCI-H719 (ATCC, cat. CRL-5837, RRID:CVCL_1582), NCI-H196 (ATCC, cat. CRL-5823, RRID:CVCL_1509), NCI-H841 (ATCC, cat. CRL-5845, RRID:CVCL_1595), NCI-H1618 (ATCC, cat. CRL-5879, RRID:CVCL_1480), NCI-H1876 (ATCC, cat. CRL-5902, RRID:CVCL_1503), DMS 114 (ATCC, cat. CRL-2066; RRID:CVCL_1174), NCI-H211 (ATCC, cat. CRL-5824; RRID:CVCL_1529), and SW 1271 (ATCC, cat. CRL-2177, RRID:CVCL_1716). The small cell lung cancer cell line COR-L88 was purchased from Sigma-Aldrich (cat. 92031917-1VL, RRID:CVCL_1141). The non-small cell lung cancer cell lines NCI-H226 (RRID:CVCL_1544) and NCI-H322M (RRID:CVCL_1557) were established at the NCI and grown from internal seed stocks. Pooled donor human umbilical vein endothelial cells (HUVEC, Lonza, cat. CC-2519) and human mesenchymal stem cells (hMSC, Lonza, cat. PT-2501) were purchased from Lonza (Walkersville, MD).
Cell Culture. All cells were maintained in an incubator at 37 degrees C and 5% CO2 with 95% humidity. […]

[1] = second compound 0.003 µM, first compound 0.00949 µM
[2] = second compound 0.003 µM, first compound 0.03 µM
[3] = second compound 0.003 µM, first compound 0.0949 µM
[4] = second compound 0.003 µM, first compound 0.3 µM
[5] = second compound 0.003 µM, first compound 0.949 µM
[6] = second compound 0.003 µM, first compound 3 µM
[7] = second compound 0.00949 µM, first compound 0.00949 µM
[8] = second compound 0.00949 µM, first compound 0.03 µM
[9] = second compound 0.00949 µM, first compound 0.0949 µM
[10] = second compound 0.00949 µM, first compound 0.3 µM
[11] = second compound 0.00949 µM, first compound 0.949 µM
[12] = second compound 0.00949 µM, first compound 3 µM
[13] = second compound 0.03 µM, first compound 0.00949 µM
[14] = second compound 0.03 µM, first compound 0.03 µM
[15] = second compound 0.03 µM, first compound 0.0949 µM
[16] = second compound 0.03 µM, first compound 0.3 µM
[17] = second compound 0.03 µM, first compound 0.949 µM
[18] = second compound 0.03 µM, first compound 3 µM
[19] = second compound 0.0949 µM, first compound 0.00949 µM
[20] = second compound 0.0949 µM, first compound 0.03 µM
[21] = second compound 0.0949 µM, first compound 0.0949 µM
[22] = second compound 0.0949 µM, first compound 0.3 µM
[23] = second compound 0.0949 µM, first compound 0.949 µM
[24] = second compound 0.0949 µM, first compound 3 µM
[25] = second compound 0.3 µM, first compound 0.00949 µM
[26] = second compound 0.3 µM, first compound 0.03 µM
[27] = second compound 0.3 µM, first compound 0.0949 µM
[28] = second compound 0.3 µM, first compound 0.3 µM
[29] = second compound 0.3 µM, first compound 0.949 µM
[30] = second compound 0.3 µM, first compound 3 µM

| Compound | IC50 (second compound 0.003 µM) | IC50 (second compound 0.00949 µM) | IC50 (second compound 0.03 µM) | IC50 (second compound 0.0949 µM) | IC50 (second compound 0.3 µM) | viability, T/C [3] | viability, T/C [4] | viability, T/C [5] | viability, T/C [6] | viability, T/C [9] | viability, T/C [10] | viability, T/C [11] | viability, T/C [12] | viability, T/C [15] | viability, T/C [16] | viability, T/C [17] | viability, T/C [18] | viability, T/C [21] | viability, T/C [22] | viability, T/C [23] | further results |
| --- | --- | --- | --- | --- | --- | --- | --- | --- | --- | --- | --- | --- | --- | --- | --- | --- | --- | --- | --- | --- | --- |
| CNCc1ccc(-c2cc(-c3nc(-c4ccc(S(=O)(=O)C(C)C)cc4)cnc3N)on2)cc1 + CC[C@@]1(O)C(=O)OCc2c1cc1n(c2=O)Cc2cc3c(CN(C)C)c(O)ccc3nc2-1 | 39.3 nM | < 9.49 nM | < 9.49 nM | < 9.49 nM | < 9.49 nM | 21.3% | 27.2% | 5.87% | 0.11% | 19.9% | 11.5% | 9.07% | 0.1% | 20.2% | 34.2% | 12% | 0.09% | 21.6% | 20.5% | 10.8% | viability, T/C [1]: 84.7%; viability, T/C [2]: 60.7%; viability, T/C [7]: 38.9%; viability, T/C [8]: 29%; viability, T/C [13]: 22.5%; viability, T/C [14]: 23.3%; viability, T/C [19]: 23.2%; viability, T/C [20]: 25.8%; viability, T/C [24]: 0.09%; viability, T/C [25]: 18.1%; viability, T/C [26]: 17%; viability, T/C [27]: 20.4%; viability, T/C [28]: 10.8%; viability, T/C [29]: 1.75%; viability, T/C [30]: 7.62% |
| Cn1ncnc1[C@H]1c2n[nH]c(=O)c3cc(F)cc(c23)N[C@@H]1c1ccc(F)cc1 + CC[C@@]1(O)C(=O)OCc2c1cc1n(c2=O)Cc2cc3c(CN(C)C)c(O)ccc3nc2-1 | < 9.49 nM | < 9.49 nM | < 9.49 nM | < 9.49 nM | < 9.49 nM | 21.4% | 24.1% | 23.4% | 21.7% | 28.4% | 25.9% | 26.7% | 17.2% | 24.2% | 25.2% | 25% | 18% | 28.1% | 23.7% | 22% | viability, T/C [1]: 27.6%; viability, T/C [2]: 23.9%; viability, T/C [7]: 26.2%; viability, T/C [8]: 27.6%; viability, T/C [13]: 27.7%; viability, T/C [14]: 28.3%; viability, T/C [19]: 22.6%; viability, T/C [20]: 27.9%; viability, T/C [24]: 11.3%; viability, T/C [25]: 11.1%; viability, T/C [26]: 16.5%; viability, T/C [27]: 11.4%; viability, T/C [28]: 9.66%; viability, T/C [29]: 6.32%; viability, T/C [30]: 3.75% |
| O=C(c1cc(Cc2n[nH]c(=O)c3ccccc23)ccc1F)N1CCN(C(=O)C2CC2)CC1 + CC[C@@]1(O)C(=O)OCc2c1cc1n(c2=O)Cc2cc3c(CN(C)C)c(O)ccc3nc2-1 | < 94.9 nM | < 94.9 nM | < 94.9 nM | < 94.9 nM | < 94.9 nM | 34.5% | 42.2% | 40.8% | 27.9% | 27% | 27% | 28.1% | 25.3% | 25% | 25.5% | 29.5% | 37.1% | 34.8% | 26.4% | 28.4% | viability, T/C (second compound 0.003 µM, first compound 9.49 µM): 27.4%; viability, T/C (second compound 0.003 µM, first compound 30 µM): 25.8%; viability, T/C (second compound 0.00949 µM, first compound 9.49 µM): 29.2%; viability, T/C (second compound 0.00949 µM, first compound 30 µM): 28.3%; viability, T/C (second compound 0.03 µM, first compound 9.49 µM): 26.1%; viability, T/C (second compound 0.03 µM, first compound 30 µM): 29.7%; viability, T/C [24]: 27.1%; viability, T/C (second compound 0.0949 µM, first compound 9.49 µM): 28.7%; viability, T/C (second compound 0.0949 µM, first compound 30 µM): 28%; viability, T/C [27]: 16.1%; viability, T/C [28]: 13.4%; viability, T/C [29]: 12.1%; viability, T/C [30]: 10.5%; viability, T/C (second compound 0.3 µM, first compound 9.49 µM): 19%; viability, T/C (second compound 0.3 µM, first compound 30 µM): 8.08% |
